Assay results: PubChem BioAssay AID248 (DTP/NCI, 2004)
Several values for one entry are separate records, joined by “and”; a condition that tells them apart may be missing. Identical values can stand only once. Toxic doses and inconclusive results are not listed. No stated cut-off is given here; in the data, active means T/C of 150% or more; inactive means T/C below 125%.

System: L1210 leukemia ip in BDF1 mice, survival T/C
Assay: NCI In Vivo Anticancer Drug Screen. Data for tumor model L1210 Leukemia (intraperitoneal) in B6D2F1 (BDF1) mice
Settings: endpoint: mean survival time, higher = longer survival
Summary of the method: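 Tumor cells were implanted, animals were treated, and survival was followed. The result divides the treated measurement by the vehicle-control measurement.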

[1] = dose: 100.0 mg/kg/injection, schedule: Q04DX003 (ip), vehicle: Klucel (hydroxypropylcellulose) (HPC)
[2] = dose: 50.0 mg/kg/injection, schedule: Q01DX009 (ip), vehicle: saline
[3] = dose: 100.0 mg/kg/injection, schedule: Q04DX003 (ip), vehicle: saline
[4] = dose: 200.0 mg/kg/injection, schedule: Q04DX003 (ip), vehicle: saline
[5] = dose: 100.0 mg/kg/injection, schedule: Q04DX003 (ip), vehicle: saline with Tween-80
[6] = dose: 200.0 mg/kg/injection, schedule: Q04DX003 (ip), vehicle: saline with Tween-80
[7] = dose: 400.0 mg/kg/injection, schedule: Q04DX003 (ip), vehicle: saline with Tween-80
[8] = dose: 50.0 mg/kg/injection, schedule: Q04DX003 (ip), vehicle: saline
[9] = dose: 100.0 mg/kg/injection, schedule: Q01DX001 (ip), vehicle: carboxymethylcellulose (CMC)
[10] = dose: 100.0 mg/kg/injection, schedule: Q01DX001 (ip), vehicle: saline
[11] = dose: 200.0 mg/kg/injection, schedule: Q01DX001 (ip), vehicle: carboxymethylcellulose (CMC)
[12] = dose: 200.0 mg/kg/injection, schedule: Q01DX001 (ip), vehicle: saline
[13] = dose: 400.0 mg/kg/injection, schedule: Q01DX001 (ip), vehicle: carboxymethylcellulose (CMC)
[14] = dose: 100.0 mg/kg/injection, schedule: Q04DX002 (ip), vehicle: saline with Tween-80
[15] = dose: 200.0 mg/kg/injection, schedule: Q04DX002 (ip), vehicle: saline with Tween-80
[16] = dose: 400.0 mg/kg/injection, schedule: Q04DX002 (ip), vehicle: saline with Tween-80
[17] = dose: 100.0 mg/kg/injection, schedule: Q01DX009 (ip), vehicle: saline with Tween-80
[18] = dose: 200.0 mg/kg/injection, schedule: Q01DX009 (ip), vehicle: saline with Tween-80
[19] = dose: 400.0 mg/kg/injection, schedule: Q01DX009 (ip), vehicle: saline with Tween-80
[20] = dose: 400.0 mg/kg/injection, schedule: Q01DX001 (ip), vehicle: saline

Measured: T/C

CC(=O)Nc1ccc(/C=N\NC(=O)N/N=C/c2ccc(NC(C)=O)cc2)cc1
inactive: dose: 50.0 mg/kg/injection, schedule: Q04DX003 (ip), vehicle: Klucel (hydroxypropylcellulose) (HPC) 90 % of control | [1] 91 % of control

CCN(CC)CC(=O)NCC(CCN1CCOCC1)(CC(C)C)c1cccc2ccccc12 (centres undefined)
inactive: [2] 111 % of control | dose: 100.0 mg/kg/injection, schedule: Q01DX009 (ip), vehicle: saline 105 % of control | [3] 96 % of control | [4] 97 % of control

CCCCOc1ccc(NC(=O)N(C)C)cn1
inactive: [5] 94 % of control | [6] 96 % of control | [7] 87 % of control

CCOC(=O)Nc1ccc2c(c1)/C(=N\NC(N)=S)c1ccccc1-2
inactive: dose: 50.0 mg/kg/injection, schedule: Q01DX001 (ip), vehicle: carboxymethylcellulose (CMC) 94 % of control | [8] 86 % of control | dose: 75.0 mg/kg/injection, schedule: Q01DX009 (ip), vehicle: saline with Tween-80 101 % of control | [9] 102 % of control | [10] 93 % of control | [3] 92 % of control | dose: 150.0 mg/kg/injection, schedule: Q01DX009 (ip), vehicle: saline with Tween-80 113 % of control | [11] 105 % of control | [12] 96 % of control | [4] 100 % of control | [13] 100 % of control

CC(=O)Nc1ccc(Cc2ccc(Cl)cc2)cc1
inactive: [10] 95 % of control | [12] 98 % of control

CCCCN=C(NC(=S)Nc1ccc(Cl)cc1)SCC
inactive: [14] 95 % of control | [15] 92 % of control | [16] 95 % of control

CCCCCCCCCCCC(=O)NC(=S)Nc1ccccc1C(F)(F)F
inactive: [1] 104 % of control | dose: 200.0 mg/kg/injection, schedule: Q04DX003 (ip), vehicle: Klucel (hydroxypropylcellulose) (HPC) 92 % of control | dose: 400.0 mg/kg/injection, schedule: Q04DX003 (ip), vehicle: Klucel (hydroxypropylcellulose) (HPC) 92 % of control

CC1(C)C2(c3ccccc3)C3C=CC3C12c1ccccc1 (centres undefined)
inactive: dose: 100.0 mg/kg/injection, schedule: Q04DX002 (ip), vehicle: Klucel (hydroxypropylcellulose) (HPC) 109 % of control | dose: 200.0 mg/kg/injection, schedule: Q04DX002 (ip), vehicle: Klucel (hydroxypropylcellulose) (HPC) 112 % of control | dose: 400.0 mg/kg/injection, schedule: Q04DX002 (ip), vehicle: Klucel (hydroxypropylcellulose) (HPC) 102 % of control

NNc1ccc2ccccc2n1
inactive: dose: 5.0 mg/kg/injection, schedule: Q01DX009 (ip), vehicle: saline 95 % of control | dose: 5.0 mg/kg/injection, schedule: Q04DX003 (ip), vehicle: saline with Tween-80 113 % of control | dose: 10.0 mg/kg/injection, schedule: Q01DX009 (ip), vehicle: saline 97 % of control | dose: 10.0 mg/kg/injection, schedule: Q04DX003 (ip), vehicle: saline with Tween-80 101 % of control | dose: 20.0 mg/kg/injection, schedule: Q01DX009 (ip), vehicle: saline 97 % of control | dose: 20.0 mg/kg/injection, schedule: Q04DX003 (ip), vehicle: saline with Tween-80 101 % of control

COc1cc(CCC(=O)O)cc(OC)c1OC
inactive: [14] 116 % of control | [15] 89 % of control | [16] 106 % of control

C=C(NC(=O)Cc1ccccc1)C(=O)OC
inactive: [17] 92 % of control | [5] 102 % of control | [18] 95 % of control | [6] 95 % of control | [19] 95 % of control | [7] 91 % of control

CCCCCOC(=O)C1OC1(C)c1ccccc1 (centres undefined)
inactive: [17] 98 % of control | [18] 91 % of control | [19] 88 % of control

CCc1ccccc1NC(=O)Nc1cccc(O)c1
inactive: [17] 100 % of control | [18] 89 % of control | [19] 94 % of control

CC1CN=C(c2ccc(NC(=O)NCCCCCCCCCNC(=O)Nc3ccc(C4=NCC(C)N4)cc3)cc2)N1 (centres undefined)
inactive: dose: 6.5 mg/kg/injection, schedule: Q01DX Z (ip), vehicle: carboxymethylcellulose (CMC) 86 % of control | dose: 13.0 mg/kg/injection, schedule: Q01DX Z (ip), vehicle: carboxymethylcellulose (CMC) 100 % of control | dose: 26.0 mg/kg/injection, schedule: Q01DX Z (ip), vehicle: carboxymethylcellulose (CMC) 106 % of control | dose: 52.0 mg/kg/injection, schedule: Q01DX Z (ip), vehicle: carboxymethylcellulose (CMC) 107 % of control

CN(CCO)CC1C(c2ccccc2)C1c1ccccc1 (centres undefined)
inactive: dose: 12.5 mg/kg/injection, schedule: Q04DX002 (ip), vehicle: Klucel (hydroxypropylcellulose) (HPC) 97 % of control | dose: 25.0 mg/kg/injection, schedule: Q04DX002 (ip), vehicle: Klucel (hydroxypropylcellulose) (HPC) 94 % of control | dose: 50.0 mg/kg/injection, schedule: Q04DX002 (ip), vehicle: Klucel (hydroxypropylcellulose) (HPC) 90 % of control

Cc1cc(/C=C/c2ccccc2)nc2ccccc12
inactive: [10] 96 % of control | [12] 100 % of control | [20] 90 % of control

O=C(Nc1ccccc1[N+](=O)[O-])Oc1ccc(-c2ccccc2)cc1
inactive: [17] 93 % of control and 105 % of control | [14] 103 % of control and 117 % of control | [5] 98 % of control | [18] 101 % of control and 92 % of control | [15] 107 % of control and 91 % of control | [6] 95 % of control | [19] 101 % of control and 103 % of control | [16] 101 % of control and 91 % of control | [7] 101 % of control

O=NN1CCCCCC1C(=O)O (centres undefined)
inactive: [10] 108 % of control | [12] 102 % of control

CCCCNC(C)(C)C(SS)c1ccc(C(F)(F)F)cc1 (centres undefined)
inactive: dose: 25.0 mg/kg/injection, schedule: Q01DX009 (ip), vehicle: other 96 % of control | dose: 25.0 mg/kg/injection, schedule: Q04DX003 (ip), vehicle: other 98 % of control | dose: 50.0 mg/kg/injection, schedule: Q01DX009 (ip), vehicle: other 94 % of control | dose: 50.0 mg/kg/injection, schedule: Q04DX003 (ip), vehicle: other 93 % of control | dose: 100.0 mg/kg/injection, schedule: Q01DX009 (ip), vehicle: other 98 % of control | dose: 100.0 mg/kg/injection, schedule: Q04DX003 (ip), vehicle: other 86 % of control

CCNc1nc2c(N)ncnc2n1C1CC(O)C(CO)O1 (centres undefined)
inactive: [9] 96 % of control | [11] 98 % of control | [13] 93 % of control

CCCCCCCCC(=O)Nc1cccc(OC(=O)NC)c1
inactive: [5] 94 % of control | [6] 96 % of control | [7] 90 % of control

CC[C@H](CC[C@@H](C)C1CC[C@H]2[C@@H]3CCC4=CC(=O)CC[C@]4(C)[C@H]3CC[C@]12C)C(C)C (some centres undefined)
inactive: [10] 98 % of control | [12] 95 % of control | [20] 97 % of control

CCN(CC)CCC(CCN(CC)CC)(CNC(=O)CN(CC)CC)c1cccc2ccccc12
inactive: dose: 12.5 mg/kg/injection, schedule: Q01DX009 (ip), vehicle: saline 97 % of control | dose: 12.5 mg/kg/injection, schedule: Q04DX003 (ip), vehicle: saline 87 % of control | dose: 25.0 mg/kg/injection, schedule: Q01DX009 (ip), vehicle: saline 114 % of control | dose: 25.0 mg/kg/injection, schedule: Q04DX003 (ip), vehicle: saline 95 % of control | [2] 108 % of control | [8] 88 % of control
